Test results reported in ChEMBL document CHEMBL3885881, “DrugMatrix”.

Species: Rattus norvegicus
Assay: DrugMatrix - Regimen: Daily Repeat
Format: toxicity, organism-based, Sprague-Dawley
Set-up: regimen Daily Repeat, gender Male, age 6-8 weeks
Conditions: in vivo, po, route oral GAVAGE, vehicle .5 % CMC; for CARBON DIOXIDE / CHLORIDE / CHOLESTEROL / CREATINE PHOSPHOKINASE / CREATININE / GLUCOSE / LACTATE DEHYDROGENASE / LIPASE / PHOSPHORUS / POTASSIUM / SODIUM / TOTAL BILIRUBIN / TOTAL PROTEIN / URIC ACID / ALANINE AMINOTRANSFERASE / ALBUMIN / ALKALINE PHOSPHATASE / ASPARTATE AMINOTRANSFERASE / BLOOD UREA NITROGEN: tissue Plasma; for ABSOLUTE BASOPHIL / ABSOLUTE EOSINOPHIL / ABSOLUTE LYMPHOCYTE / ABSOLUTE MONOCYTE / ABSOLUTE SEGMENTED NEUTROPHIL / BASOPHIL / EOSINOPHIL / ERYTHROCYTE COUNT / HEMATOCRIT / HEMOGLOBIN / LEUKOCYTE COUNT / LYMPHOCYTE / MEAN CORPUSCULAR HEMOGLOBIN / MEAN CORPUSCULAR HEMOGLOBIN CONCENTRATION / MEAN CORPUSCULAR VOLUME / MONOCYTE / NEUTROPHIL / NUCLEATED RED BLOOD CELLS / PLATELET COUNT: tissue Blood
[1] = 7 mg/kg, 120 h, dose level Low, time 5 day
[2] = 70 mg/kg, 72 h, dose level High, time 3 day
[3] = 70 mg/kg, 120 h, dose level High, time 5 day
[4] = 140 mg/kg, 72 h, dose level Low, time 3 day

NC1=NC(=O)C(c2ccccc2)O1 (configuration not stated) [PEMOLINE]
CARBON DIOXIDE [1]: 34.67 mmol/L | CHLORIDE [1]: 103 MEQ/L | CHOLESTEROL [1]: 67.67 mg/dL | CREATINE PHOSPHOKINASE [1]: 147.33 u/L | CREATININE [1]: 0.12 mg/dL | GLUCOSE [1]: 151.67 mg/dL | LACTATE DEHYDROGENASE [1]: 92.33 u/L | LIPASE [1]: 9 u/L | PHOSPHORUS [1]: 13.57 mg/dL | POTASSIUM [1]: 6.78 MEQ/L | SODIUM [1]: 146.93 MEQ/L | TOTAL BILIRUBIN [1]: 0.17 mg/dL | TOTAL PROTEIN [1]: 5.77 G/DL | URIC ACID [1]: 1.33 mg/dL | ABSOLUTE BASOPHIL [2]: 0 CELLS/uL | ABSOLUTE EOSINOPHIL [2]: 0 CELLS/uL | ABSOLUTE LYMPHOCYTE [2]: 14699.33 CELLS/uL | ABSOLUTE MONOCYTE [2]: 90.67 CELLS/uL | ABSOLUTE SEGMENTED NEUTROPHIL [2]: 1243.33 CELLS/uL | BASOPHIL [2]: 0% | EOSINOPHIL [2]: 0% | ERYTHROCYTE COUNT [2]: 5.56 x10E6/uL | HEMATOCRIT [2]: 35.23% | HEMOGLOBIN [2]: 14.27 G/DL | LEUKOCYTE COUNT [2]: 16.03 x10E3/uL | LYMPHOCYTE [2]: 91.33% | MEAN CORPUSCULAR HEMOGLOBIN [2]: 25.7 pg | MEAN CORPUSCULAR HEMOGLOBIN CONCENTRATION [2]: 40.47 G/DL | MEAN CORPUSCULAR VOLUME [2]: 63.43 fL | MONOCYTE [2]: 0.67% | NEUTROPHIL [2]: 8% | NUCLEATED RED BLOOD CELLS [2]: 0 /100WBC | PLATELET COUNT [2]: 1042 x10E3/uL | ALANINE AMINOTRANSFERASE [2]: 48 u/L | ALBUMIN [2]: 4.17 G/DL | ALKALINE PHOSPHATASE [2]: 389 u/L | ASPARTATE AMINOTRANSFERASE [2]: 92.67 u/L | BLOOD UREA NITROGEN [2]: 15.33 mg/dL | CARBON DIOXIDE [2]: 33 mmol/L | CHLORIDE [2]: 100.67 MEQ/L | CHOLESTEROL [2]: 58.33 mg/dL | CREATINE PHOSPHOKINASE [2]: 270 u/L | CREATININE [2]: 0.15 mg/dL | GLUCOSE [2]: 154 mg/dL | LACTATE DEHYDROGENASE [2]: 211.33 u/L | LIPASE [2]: 8.67 u/L | PHOSPHORUS [2]: 13.6 mg/dL | POTASSIUM [2]: 6.81 MEQ/L | SODIUM [2]: 144.87 MEQ/L | TOTAL BILIRUBIN [2]: 0.1 mg/dL | TOTAL PROTEIN [2]: 5.8 G/DL | URIC ACID [2]: 1.6 mg/dL | ABSOLUTE BASOPHIL [3]: 0 CELLS/uL | ABSOLUTE EOSINOPHIL [3]: 0 CELLS/uL | ABSOLUTE LYMPHOCYTE [3]: 16458 CELLS/uL | ABSOLUTE MONOCYTE [3]: 255.33 CELLS/uL | ABSOLUTE SEGMENTED NEUTROPHIL [3]: 886.67 CELLS/uL | BASOPHIL [3]: 0% | EOSINOPHIL [3]: 0% | ERYTHROCYTE COUNT [3]: 5.79 x10E6/uL | HEMATOCRIT [3]: 36.57% | HEMOGLOBIN [3]: 14.87 G/DL | LEUKOCYTE COUNT [3]: 17.6 x10E3/uL | LYMPHOCYTE [3]: 93% | MEAN CORPUSCULAR HEMOGLOBIN [3]: 25.7 pg | MEAN CORPUSCULAR HEMOGLOBIN CONCENTRATION [3]: 40.63 G/DL | MEAN CORPUSCULAR VOLUME [3]: 63.23 fL | MONOCYTE [3]: 1.67% | NEUTROPHIL [3]: 5.33% | NUCLEATED RED BLOOD CELLS [3]: 0.33 /100WBC | PLATELET COUNT [3]: 1251.67 x10E3/uL | ALANINE AMINOTRANSFERASE [3]: 59.67 u/L | ALBUMIN [3]: 4.33 G/DL | ALKALINE PHOSPHATASE [3]: 378.67 u/L | ASPARTATE AMINOTRANSFERASE [3]: 96.33 u/L | BLOOD UREA NITROGEN [3]: 18.67 mg/dL | CARBON DIOXIDE [3]: 33.33 mmol/L | CHLORIDE [3]: 100.33 MEQ/L | CHOLESTEROL [3]: 64 mg/dL | CREATINE PHOSPHOKINASE [3]: 276.33 u/L | CREATININE [3]: 0.23 mg/dL | GLUCOSE [3]: 139 mg/dL | LACTATE DEHYDROGENASE [3]: 306.33 u/L | LIPASE [3]: 10.67 u/L | PHOSPHORUS [3]: 12.97 mg/dL | POTASSIUM [3]: 6.82 MEQ/L | SODIUM [3]: 144.9 MEQ/L | TOTAL BILIRUBIN [3]: 0.2 mg/dL | TOTAL PROTEIN [3]: 6.03 G/DL | URIC ACID [3]: 1.9 mg/dL | BASOPHIL [4]: 0% | EOSINOPHIL [4]: 1% | ERYTHROCYTE COUNT [4]: 6.27 x10E6/uL | HEMATOCRIT [4]: 38.3% | HEMOGLOBIN [4]: 14.3 G/DL | LEUKOCYTE COUNT [4]: 13.1 x10E3/uL | LYMPHOCYTE [4]: 92% | MEAN CORPUSCULAR HEMOGLOBIN [4]: 22.8 pg | MEAN CORPUSCULAR HEMOGLOBIN CONCENTRATION [4]: 37.3 G/DL | MEAN CORPUSCULAR VOLUME [4]: 61.1 fL | MONOCYTE [4]: 1% | NEUTROPHIL [4]: 6% | PLATELET COUNT [4]: 1285 x10E3/uL | ALANINE AMINOTRANSFERASE [4]: 34.5 u/L | ALBUMIN [4]: 3.25 G/DL | ALKALINE PHOSPHATASE [4]: 286.5 u/L | ASPARTATE AMINOTRANSFERASE [4]: 93.5 u/L | BLOOD UREA NITROGEN [4]: 15.5 mg/dL | CHLORIDE [4]: 105.5 MEQ/L | CHOLESTEROL [4]: 58.5 mg/dL | CREATINE PHOSPHOKINASE [4]: 130 u/L | CREATININE [4]: 0.75 mg/dL | GLUCOSE [4]: 137.5 mg/dL | PHOSPHORUS [4]: 12.65 mg/dL | POTASSIUM [4]: 7.95 MEQ/L | SODIUM [4]: 148 MEQ/L | TOTAL PROTEIN [4]: 5.3 G/DL
